Source: US20050113396A1, “2-Guanidino-4-heterocyclylquinazolines” (priority 2001, published 2005)
Structures can show the parent of a compound that is named as a salt.

melting point	Structure (SMILES)
317 to 320 °C	Cc1noc(C)c1-c1nc(N=C(N)N)nc2ccc(Cl)cc12 (as salt: HCl) [Example 215]
270 to 275 °C	COc1ncc(-c2nc(N=C(N)N)nc3ccc(Cl)cc23)c(OC)n1 (as salt: HCl) [Example 235]
302 °C	NC(N)=Nc1nc(-n2c(Br)ccc2Br)c2cc(Cl)ccc2n1 (as salt: HCl) [Example 196]
